Like-named read-outs stand apart in the source and are kept apart here.
How the values were obtained:
[1] = In vivo pharmacokinetic study in rats; set-up: species or system male Sprague–Dawley rats; conditions: rat; for MRT inf: read-out: MRT0-∞
Procedure: For the iv experiment, male SD rats (n = 3) were given a single dose of NHPPC (1 mg/kg) over 1 min by dorsal venous arch of foot. Approximately 200 µL blood samples were collected at 5, 15, 30 min and 1, 2, 4, 6, 8 and 24 h post-dose via tail vein into heparinized (coated with 0.1% heparin in saline) tubes. For the oral experiments, the male rats (n = 3) were given a single dose of 2 mg/kg. Then the blood samples were collected at 10, 30 min and 1, 2, 4, 6, 8 and 24 h post-dose. Plasma was obtained after centrifugation at 8000 rpm for 6 min (4°C) within 10 min of blood-drawing and stored at –70°C until they were analyzed.
Data analysis including analyte/IS was acquired using Analyst version 1.6.1 software (AB SCIEX). All pharmacokinetic parameters (for example: K10, AUC0–t, AUC0-∞, Cmax, Tmax, t1/2, CL, Vss, MRT0–∞, etc.) were analyzed based on a non-compartmental model and using Pharsight WinNonlin version 6.3 (St. Louis, USA). The area under the concentration time curve (AUC0–t and AUC0–∞) was calculated by linear trapezoidal rule. The natural logarithms (Ln) of the fraction remaining against incubation times (min) was plotted and the first-order rate constant of turnover is determined by a linear regression model. The final results (for example: the mean, standard deviation, the remaining, device recovery, ke, bioavailability, etc.) were electronically exported into Excel 7.0 (Redmond, USA) for data processing and formatting.

[2] = In vivo pharmacokinetic study in dogs; set-up: species or system male Beagle dogs; conditions: dog; for MRT inf: read-out: MRT0-∞
[3] = In vitro metabolic stability in rat liver microsomes; type: in vitro ADME; conditions: for remaining at 1 h, 1 µM: liver microsomes, pH 7.4, rat liver microsomes, 60 min, read-out: percent remaining
Procedure: The phosphate buffer (pH 7.4, 100 mM) and (300 mM) were prepared in deionized water. NADP and IA were dissolved in phosphate buffer and MgCl2 solution and then added 20 μL IDH (18 units/mg protein) and mixed. NHPPC (1 mM) and positive control drug were prepared by dilution using DMSO and then the NHPPC and positive control drug working solution (50 μM) were obtained by dilution using methanol: H2O (1:1, v/v) mixture. Pooled human, rat and dog liver microsomes were added to phosphate buffer pH7.4 to a concentration 20 mg/mL. NHPPC was incubated with liver microsomes. The incubation solution of the final reaction conditions contained 50 mM potassium phosphate buffer (pH 7.4), 0.5 mg protein/mL microsomes, 3 mM MgCl2, 2 mM NADPH and 1 μM NHPPC or positive control drug in a final volume of 100 μL. In sample and positive control groups, NADPH was added into the incubation solutions. In the negative control group, water (the replacement of NADPH) was added into the incubation solutions. Samples were incubated aerobically in a shaking water bath at 37°C and the reaction was terminated by adding 300 μL of ice cold acetonitrile (contain 100 ng/mL IS) at different interval 0, 5, 10, 20, 30 and 60 min. While positive control and negative control were incubated aerobically in a shaking water bath at 37°C for 0 and 60 min, respectively. NHPPC and control concentrations were determined by LC-MS/MS at each time point (n = 3). Calculation of t1/2 and CLint was performed by using following equations, where K is the elimination rate constant (min^−1) and QH is hepatic blood flow (mL/min/kg). t1/2=0.693/KCLint,in vitro=VD×KVD=Volume of reaction mixture(mL)/mg of protein per reation.
Hepatic intrinsic clearance was estimated by using the scaling factors and calculated by using the following equation (Lave et al. [1997]). CLint,in vivo=CLint×mg microsomal protein per liver×g liver per kg body weight, Cint,H=CLint,in vivo×QH/CLint,in vivo+QH,EH=CLint,H/QH.

[4] = male, Sprague-Dawley, plasma, IV 1 mg/kg
[5] = male, Sprague-Dawley, plasma, PO 2 mg/kg
[6] = male, Beagle, plasma, IV 1 mg/kg
[7] = male, Beagle, plasma, PO 1 mg/kg

- AUC(0-inf) [1, 4]: 866 ± 201 ng·h/mL
- AUC(0-t) [1, 4]: 847 ± 195 ng·h/mL
- clearance [1, 4]: 19.8 mL/min/kg
- half-life [1, 4]: 4.55 ± 0.11 h
- MRT inf [1, 4]: 5.5 ± 0.36 h
- Vd ([1]; male, Sprague-Dawley, plasma, IV 1 mg/kg, read-out: Vss): 6.5 ± 1 L/kg
- AUC(0-inf) [1, 5]: 593 ± 137 ng·h/mL
- AUC(0-t) [1, 5]: 583 ± 135 ng·h/mL
- Cmax [1, 5]: 52.6 ± 12.9 ng/mL
- Tmax [1, 5]: 6 h
- half-life [1, 5]: 4.02 ± 0.39 h
- MRT inf [1, 5]: 7.8 ± 0.79 h
- K10 ([1]; IV 1 mg/kg): 0.15 ± 0.00 h⁻¹
- K10 ([1]; PO 2 mg/kg): 0.17 ± 0.02 h⁻¹
- K10 ([2]; IV 1 mg/kg): 0.52 ± 0.03 h⁻¹
- K10 ([2]; PO 1 mg/kg): 0.45 ± 0.06 h⁻¹
- BA ([2]; PO 1 mg/kg vs IV 1 mg/kg, 1 mg/kg): 53.1 ± 14.2%
- AUC(0-inf) [2, 6]: 685 ± 40 ng·h/mL
- AUC(0-t) [2, 6]: 679 ± 38.5 ng·h/mL
- clearance [2, 6]: 24.3 mL/min/kg
- half-life [2, 6]: 1.33 ± 0.06 h
- MRT inf [2, 6]: 1.15 ± 0.04 h
- Vd ([2]; male, Beagle, plasma, IV 1 mg/kg, read-out: Vss): 1.68 ± 0.08 L/kg
- AUC(0-inf) [2, 7]: 364 ± 97.4 ng·h/mL
- AUC(0-t) [2, 7]: 351 ± 96.1 ng·h/mL
- Cmax [2, 7]: 144 ± 35.3 ng/mL
- Tmax [2, 7]: 0.5 h
- half-life [2, 7]: 1.57 ± 0.22 h
- MRT inf [2, 7]: 2.54 ± 0.15 h
- Tmax ([2]; male, beagle, plasma, PO 1 mg/kg): 0.5 to 1 h
- half-life at 1 µM ([3]; pH 7.4, rat liver microsomes): 0.708 h
- microsomal CLint at 1 µM ([3]; pH 7.4, rat liver microsomes, read-out: CLint, ivtro): 23.3 µL/min/mg
- k el at 1 µM ([3]; pH 7.4, rat liver microsomes, read-out: Ke (converted)): 0.000272 s⁻¹
- remaining at 1 h, 1 µM ([3]; rat, in the presence of NADPH, 1 μM): 42.8%
- remaining at 1 h, 1 µM ([3]; rat, without NADPH regenerating system): 102%
- ranking for clearance ([3]; rat, ranking criteria of Houston 1994, Kerns and Di 2008): middle clearance
- CLH ([3]; rat, scaled from liver microsomes): 27.5 mL/min/kg
Structure (SMILES): COc1ccc(CNc2nc(N3CCC[C@H]3CO)ncc2C(=O)NCc2ccccn2)cc1Cl [NHPPC, N-(2-pyridylmethyl)-2-hydroxiymethyl-1-pyrrolidinyl-4-(3-chloro-4-methoxy-benzylamino)-5-pyrimidine-carboxamide]
